System: sex-sorted sperm cells
Experiment: CASA post-thaw motility of sex sorted bull sperm treated with OSR
Format: cell-based, bovine
Design: key to BCF: beat cross frequency in Hz; key to ALH: lateral head displacement in μm; key to STR / LIN: percent; key to Motile: percent motile sperm; key to VAP / VSL / VCL: velocity in μm/s
Conditions: 3 step
Description: 5. Sperm Motility Evaluations by CASA. A comparison of viewing chambers and slides can be done in a variety of IVOS instruments, which for example only can be a Hamilton-Thorne IVOS (Hamilton-Thorne, Beverly, Mass.). Instrument settings: image capture; frames per second=60; number of frames=30; cell detection; minimum contrast=50; minimum cell size=5; defaults, cell size=5; cell intensity=50; progressive cells, path velocity=50 um/s; straightness ≥70%; slow cells (um/s); average path velocity (VAP, <30 um/s), straight-line velocity (VSL, <15 um/s). The CASA motility variables measured can be a percentage of total motile sperm (motile), percentage of progressively motile sperm (progressive), VAO, VSL, curvilinear velocity (VCL, um/s), average lateral head displacement (ALK, um) and the number of times the sperm head crosses the mean path/s (BCF, Hz), straight-line sperm motility (STR, %), and linear sperm motility (LIN, %). See for instance, Lenz, R W, et al., J Anim Sci (2011) 89:383-388, incorporated by reference herein in its entirety.
One set of semen from each bull was used as a control while to the remaining sets of semen samples were added vitamin B12, as the antioxidant, at respective concentrations of 0.5 mg/ml and 0.25 mg/ml. For each sample, the same concentration of vitamin B12 was added (i) during the staining process, and (ii) in the catch fluid of the collection vessel. […] Sperm samples were sorted in “High Purity” mode, and the collected sex-sorted sperm were extended with a cryoextender, which in some cases again contained the same concentration of vitamin B12 and the samples were frozen. Three hours after thawing (which is a standard time frame to conduct quality control assessments on sorted frozen thawed sperm samples) the thawed samples were put through CASA, a machine that provides various data on sperm including motility and progressive motility information.
In the tables below: VAP (average path velocity (μm/s)); VSL (straight-line velocity (μm/s)); VCL (curvilinear velocity (μm/s)); ALH (average lateral head displacement (μm)); BCF (the number of times the sperm head crosses the mean path/s in Hz); STR (percent straight-line sperm motility); LIN (percent linear sperm motility); PIA (percent intact acrosomes); motile (percent motile sperm); and progressive (percent progressively motile sperm).
There is no correlation with regard to randomly assigned names such as “Bull A.” Bull A from Example 5 is not the same bull as Bull A from Example 7.
In both cases the concentration of the vitamin B12 was 1 mg/ml. For all other bulls in the table below unless otherwise indicated, the concentration of vitamin B12 added was also 1 mg/ml.
In an additional experiment, motility and progressive motility were checked 3.75 hours after thawing a sex sorted semen sample treated with the antioxidant. The OSR was not added to the control sample. The semen sample was derived from a single bull. 0.25 mg/ml concentration of vitamin B12 was added to the test sample during the staining step, the collecting step (in the catch fluid of the collecting vessel) and in the cryoprotectant extender prior to freezing the sample.
[…] The OSR was not added to the control samples. The semen samples were derived from two Holstein bulls.

[1] = Holstein 0 hr post-thaw, .25 mg/ml
[2] = Holstein 0 hr post-thaw, .35 mg/ml
[3] = Holstein 0 hr post-thaw, .45 mg/ml
[4] = Holstein 3 hr post-thaw (1st block), .25 mg/ml
[5] = Holstein 3 hr post-thaw (1st block), .35 mg/ml
[6] = Holstein 3 hr post-thaw (1st block), .45 mg/ml
[7] = Holstein 3 hr post-thaw (2nd block), .25 mg/ml
[8] = Holstein 3 hr post-thaw (2nd block), .35 mg/ml
[9] = Holstein 3 hr post-thaw (2nd block), .45 mg/ml
[10] = Holstein 6 hr post-thaw (1st block), .25 mg/ml
[11] = Holstein 6 hr post-thaw (1st block), .35 mg/ml
[12] = Holstein 6 hr post-thaw (1st block), .45 mg/ml
[13] = Holstein 6 hr post-thaw (2nd block), .25 mg/ml
[14] = Holstein 6 hr post-thaw (2nd block), .35 mg/ml
[15] = Holstein 6 hr post-thaw (2nd block), .45 mg/ml
[16] = Jersey 0 hr post-thaw, .25 mg/ml
[17] = Jersey 0 hr post-thaw, .35 mg/ml
[18] = Jersey 0 hr post-thaw, .45 mg/ml
[19] = Jersey 3 hr post-thaw, .25 mg/ml
[20] = Jersey 3 hr post-thaw, .35 mg/ml
[21] = Jersey 3 hr post-thaw, .45 mg/ml

O=C(O)CCC(=O)C(=O)O [AKG, Alpha-ketoglutarate] was tested, and the ALH [1] was 8, the BCF [1] was 27 and the LIN [1] was 48. For the same compound, the Motile [1] was 91, the Prog [1] was 75 and the STR [1] was 82. It also gave a VAP [1] of 104, a VCL [1] of 185 and a VSL [1] of 81. The ALH [2] was 7, the BCF [2] was 29 and the LIN [2] was 51. The Motile [2] was 80, the Prog [2] was 65 and the STR [2] was 85. For the same compound, the VAP [2] was 94, the VCL [2] was 165 and the VSL [2] was 80. The ALH [3] was 7, the BCF [3] was 30 and the LIN [3] was 57. For the same compound, the Motile [3] was 86, the Prog [3] was 75 and the STR [3] was 89. It also gave a VAP [3] of 98, a VCL [3] of 162 and a VSL [3] of 88. For the same compound, the ALH [4] was 7, the BCF [4] was 26 and the LIN [4] was 45. The Motile [4] was 77, the Prog [4] was 60 and the STR [4] was 81. The VAP [4] was 99, the VCL [4] was 176 and the VSL [4] was 79. For the same compound, the ALH [5] was 6, the BCF [5] was 25 and the LIN [5] was 50. For the same compound, the Motile [5] was 63, the Prog [5] was 48 and the STR [5] was 83. The VAP [5] was 85, the VCL [5] was 145 and the VSL [5] was 70. For the same compound, the ALH [6] was 5, the BCF [6] was 24 and the LIN [6] was 56. The Motile [6] was 60, the Prog [6] was 56 and the STR [6] was 85. The VAP [6] was 94, the VCL [6] was 145 and the VSL [6] was 80. It also gave an ALH [7] of 6, a BCF [7] of 26 and an LIN [7] of 47. The Motile [7] was 71, the Prog [7] was 55 and the STR [7] was 81. It also gave a VAP [7] of 96, a VCL [7] of 169 and a VSL [7] of 77. It also gave an ALH [8] of 5, a BCF [8] of 21 and an LIN [8] of 50. It also gave a Motile [8] of 64, a Prog [8] of 38 and an STR [8] of 84. For the same compound, the VAP [8] was 69, the VCL [8] was 117 and the VSL [8] was 57. The ALH [9] was 6, the BCF [9] was 25 and the LIN [9] was 53. For the same compound, the Motile [9] was 60, the Prog [9] was 50 and the STR [9] was 84. The VAP [9] was 90, the VCL [9] was 144 and the VSL [9] was 75. It also gave an ALH [10] of 6, a BCF [10] of 17 and an LIN [10] of 39. It also gave a Motile [10] of 36, a Prog [10] of 7 and an STR [10] of 76. It also gave a VAP [10] of 44, a VCL [10] of 87 and a VSL [10] of 33. It also gave an ALH [11] of 7, a BCF [11] of 16 and an LIN [11] of 40. It also gave a Motile [11] of 58, a Prog [11] of 7 and an STR [11] of 76. The VAP [11] was 42, the VCL [11] was 80 and the VSL [11] was 32. It also gave an ALH [12] of 5, a BCF [12] of 22 and an LIN [12] of 48. It also gave a Motile [12] of 52, a Prog [12] of 22 and an STR [12] of 82. For the same compound, the VAP [12] was 55, the VCL [12] was 96 and the VSL [12] was 46. For the same compound, the ALH [13] was 6, the BCF [13] was 17 and the LIN [13] was 39. The Motile [13] was 36, the Prog [13] was 7 and the STR [13] was 76. It also gave a VAP [13] of 44, a VCL [13] of 87 and a VSL [13] of 33. It also gave an ALH [14] of 7, a BCF [14] of 16 and an LIN [14] of 40. For the same compound, the Motile [14] was 58, the Prog [14] was 7 and the STR [14] was 76. The VAP [14] was 42, the VCL [14] was 80 and the VSL [14] was 32. For the same compound, the ALH [15] was 5, the BCF [15] was 22 and the LIN [15] was 48. It also gave a Motile [15] of 52, a Prog [15] of 22 and an STR [15] of 82. For the same compound, the VAP [15] was 55, the VCL [15] was 96 and the VSL [15] was 46. The ALH [16] was 7, the BCF [16] was 24 and the LIN [16] was 48. It also gave a Motile [16] of 67, a Prog [16] of 51 and an STR [16] of 83. It also gave a VAP [16] of 83, a VCL [16] of 152 and a VSL [16] of 68. The ALH [17] was 6, the BCF [17] was 25 and the LIN [17] was 47. It also gave a Motile [17] of 57, a Prog [17] of 43 and an STR [17] of 82. For the same compound, the VAP [17] was 79, the VCL [17] was 146 and the VSL [17] was 63. For the same compound, the ALH [18] was 6, the BCF [18] was 27 and the LIN [18] was 56. It also gave a Motile [18] of 81, a Prog [18] of 66 and an STR [18] of 87. For the same compound, the VAP [18] was 81, the VCL [18] was 133 and the VSL [18] was 70. It also gave an ALH [19] of 5, a BCF [19] of 24 and an LIN [19] of 46. It also gave a Motile [19] of 33, a Prog [19] of 16 and an STR [19] of 79. For the same compound, the VAP [19] was 65, the VCL [19] was 117 and the VSL [19] was 49. It also gave an ALH [20] of 6, a BCF [20] of 25 and an LIN [20] of 45. For the same compound, the Motile [20] was 26, the Prog [20] was 10 and the STR [20] was 80. It also gave a VAP [20] of 59, a VCL [20] of 110 and a VSL [20] of 46. For the same compound, the ALH [21] was 6, the BCF [21] was 25 and the LIN [21] was 45. For the same compound, the Motile [21] was 59, the Prog [21] was 25 and the STR [21] was 78. For the same compound, the VAP [21] was 67, the VCL [21] was 66 and the VSL [21] was 50.
